According to PMC7361110 (Antiviral Research, 2020):
Read-outs that look alike come from different tables or passages of the source.

System: SARS-CoV-2
Assay type: cell-based, SARS-CoV-2 (BetaCoV/France/IDF0571/2020 strain)
Settings: for antiviral activity against SARS-CoV-2 (in words): single drug

SMILES	IC50 [µM]	antiviral activity against SARS-CoV-2 (in words)	reduction of remdesivir IC50 (in presence of 12.5 μM berberine versus remdesivir alone) [fold]	reduction of remdesivir IC50 (in presence of diltiazem (11.5 μM) versus remdesivir alone)
CCOC(=O)c1c(CSc2ccccc2)n(C)c2cc(Br)c(O)c(CN(C)C)c12 [Arbidol (umifenovir)]	3.54			
COc1ccc2cc3[n+](cc2c1OC)CCc1cc2c(cc1-3)OCO2 [Berberine]	10.6	dose-dependent antiviral responses		
COc1ccc([C@@H]2Sc3ccccc3N(CCN(C)C)C(=O)[C@@H]2OC(C)=O)cc1 [Diltiazem]		neither diltiazem nor ribavirin or favipiravir showed antiviral activity		
NC(=O)c1nc(F)c[nH]c1=O [Favipiravir, 6-fluoro-3-hydroxy-2-pyrazinecarboxamine]		neither diltiazem nor ribavirin or favipiravir showed antiviral activity		
Cc1cccc(C)c1OCC(=O)N[C@@H](Cc1ccccc1)[C@@H](O)C[C@H](Cc1ccccc1)NC(=O)[C@H](C(C)C)N1CCCNC1=O [Lopinavir]	5.25			
CCC(CC)COC(=O)[C@H](C)N[P@](=O)(OC[C@H]1O[C@@](C#N)(c2ccc3c(N)ncnn23)[C@H](O)[C@@H]1O)Oc1ccccc1 [Remdesivir]	0.987		> 2	up to 8.5 fold
NC(=O)c1ncn([C@@H]2O[C@H](CO)[C@@H](O)[C@H]2O)n1 [Ribavirin, 1-β-D-ribofuranosyl-1,2,4-triazole-3-carboxamide]		neither diltiazem nor ribavirin or favipiravir showed antiviral activity		
